Laboratory results as given in patent US20210228523A1, “MODULATORS OF SESTRIN-GATOR2 INTERACTION AND USES THEREOF” (Navitor Pharmaceuticals, Inc., priority 2017, published 2021).

Biological target: T1, GATOR2/Sestrin2 complexes (Homo sapiens, UniProt P58004)
T1 construct: endogenous in cells; host or cells: HEK293T cells stably expressing FLAG-WDR24 (lentiviral, pLJM60)
T1 sequence (P58004 1-480): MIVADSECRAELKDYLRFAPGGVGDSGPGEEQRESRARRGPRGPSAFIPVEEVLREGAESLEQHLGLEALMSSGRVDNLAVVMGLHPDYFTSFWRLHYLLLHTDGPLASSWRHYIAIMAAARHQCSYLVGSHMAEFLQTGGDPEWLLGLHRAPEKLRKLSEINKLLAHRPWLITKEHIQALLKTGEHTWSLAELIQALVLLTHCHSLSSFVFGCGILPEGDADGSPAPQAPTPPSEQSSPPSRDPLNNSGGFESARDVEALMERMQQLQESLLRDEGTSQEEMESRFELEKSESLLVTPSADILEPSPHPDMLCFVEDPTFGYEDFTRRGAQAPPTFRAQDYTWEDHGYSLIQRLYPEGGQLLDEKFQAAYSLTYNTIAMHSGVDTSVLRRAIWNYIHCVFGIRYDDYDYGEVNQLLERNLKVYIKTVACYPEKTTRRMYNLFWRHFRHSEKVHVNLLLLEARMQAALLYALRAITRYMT
Test: In vitro PPI assay (Method 1; Western blot assay): Sestrin2 bound to GATOR2 after compound addition to immunoprecipitated FLAG-WDR24 complex
Type: binding
Settings: 25 μM, % activity relative to leucine (25 μM = 100%)
Description: This screening assay measured test compound activity in vitro on GATOR2/Sestrin2 complexes purified via immunoprecipitation of stably expressed FLAG-WDR24 from HEK293T cells. HEK293T cells (293 Ts) were engineered to stably express N-terminally tagged FLAG-WDR24 via transduction by lentivirus. Lentiviruses were produced by co-transfection of the lentiviral transfer vector pLJM60 with the […] into HEK-293T cells using the XTremeGene 9 transfection reagent (Roche Diagnostics). The media was changed 24 hours post-transfection to Dulbecco's Modified Eagle's media (DMEM) supplemented with 30% Inactivated Fetal Serum. The virus-containing supernatants were collected 48 and 72 hours after transfection and passed through a 0.45 μm filter to eliminate cells. Target cells in 6-well tissue culture plates were infected in media containing 8 μg/mL polybrene and spin infections were performed by centrifugation at 2,200 rpm for 1 hour. Twenty-four hours after infection, the virus was removed and the cells selected with the appropriate antibiotic. Cells were then grown in DMEM supplemented with 10% fetal bovine serum and antibiotics.
Seventy-two hours later, cells were placed in standard RPMI media formulated with no amino acids and supplemented with 5 mM Glucose (−AA RPMI, US Biological Life Sciences) for 1 hour then subsequently lysed in lysis buffer (40 mM HEPES, 1% Triton, 10 mM sodium β-glycerophosphate, 10 mM sodium pyrophosphate, 2.5 mM MgCl2 and protease inhibitors). To isolate the FLAG-WDR24/endogenous-Sestrin2 complex, crude lysate (equivalent to 2-4 mg of total protein) in a volume of 1 ml was subjected to immunoprecipitation with 30 μl of anti-flag resin (SIGMA) for 2 hours at 4° C., washed twice in cold lysis buffer plus 0.5M NaCl and resuspended in 1 ml of cold cytosolic buffer (40 mM HEPES pH 7.4, 140 mM KCl, 10 mM NaCl, 2.5 mM MgCl2, 0.1% TritonX-100). […] After the incubation period, samples were centrifuged to pellet the FLAG-WDR24/endogenous-Sestrin2 complex bound to the anti-flag resin, the supernatant was completely removed and resin was resuspended in SDS-PAGE sample buffer and boiled for 5 minutes. Samples were then processed by SDS-PAGE and western blots were performed with anti-FLAG (SIGMA) and anti-Sestrin2 (Cell Signaling Technology) antibodies as described in L. Chantranupong, et al., Cell Reports 9:1-8 (2014).
The resulting western blots were scanned and band intensities corresponding to Sestrin2 and FLAG-WDR24 were quantified using the LI-COR® imaging platform. To determine the amount of Sestrin2 bound to GATOR2 for each condition, the band intensity for Sestrin2 was normalized to the band intensity of FLAG-WDR24. […]
72 hours later, cells were placed in standard RPMI media formulated with no amino acids and supplemented with 5 mM Glucose (−AA RPMI, USBiological Life Sciences) for 1 hour then subsequently lysed in lysis buffer (40 mM HEPES, 1% Triton, 10 mM Sodium Beta-Glycerophosphate, 10 mM Sodium Pyrophosphate, 2.5 mM MgCl2 and protease inhibitors). The Flag-WDR24/endogenous-Sestrin2 complex was isolated as follows: crude lysate (equivalent to 2-4 mg of total protein) in a volume of 1 ml was subjected to immunoprecipitation (IP) with 30 μl of anti-flag resin (SIGMA) for 2 hours at 4° C., washed twice in cold lysis buffer plus 0.5M NaCl and resuspended in 1 ml of cold cytosolic buffer (40 mM HEPES pH 7.4, 140 mM KCl, 10 mM NaCl, 2.5 mM MgCl2, 0.1% TritonX-100). Compounds were then added to each sample at a given concentration of 25 μM and incubated with rotation at 4° C. for 30 minutes. After the incubation period, samples were centrifuged to pellet the Flag-WDR24/endogenous-Sestrin2 complex bound to the anti-flag resin, the supernatant was completely removed and resin was resuspended in sodium dodecyl sulfate-polyacrylamide gel electrophoresis (SDS-PAGE) sample buffer and boiled for 5 minutes. […]

How did the “Activity of Leucine: % Activity” value turn out when `CC(C[C@H](N)C(=O)O)C(F)(F)F` (stereo in doubt) [Compound I-145, (2S,4R)-2-amino-5,5,5-trifluoro-4-methylpentanoic Acid] was run?
Its value is “A (a % activity relative to leucine of ≥40%)”.

With `CC(C[C@@H](N)C(=O)O)C(F)(F)F` (stereo in doubt) [Compound I-146, (2R,4S)-2-amino-5,5,5-trifluoro-4-methylpentanoic Acid] as the compound, how does the “Activity of Leucine: % Activity” value read?
The value was “A (a % activity relative to leucine of ≥40%)”.

How did the “Activity of Leucine: % Activity” value turn out when `CC(C)C[C@@H](C(=O)O)N(C)C` [Compound I-1, (S)-2-(dimethylamino)-4-methylpentanoic Acid] was run?
The value was “B (a % activity relative to leucine of ≤−40%)”.

With `Cl.N[C@@H](CCCCC(F)(F)F)C(=O)O` [Compound I-2, (S)-2-amino-7,7,7-trifluoroheptanoic Acid Hydrochloride] as the compound, how does the “Activity of Leucine: % Activity” value read?
Its value is “B (a % activity relative to leucine of ≤−40%)”.

Which “Activity of Leucine: % Activity” value does the source give for `Cl.N[C@H](CCCCC(F)(F)F)C(=O)O` [Compound I-3, (R)-2-amino-7,7,7-trifluoroheptanoic Acid Hydrochloride] here?
Its value is “B (a % activity relative to leucine of ≤−40%)”.

Which “Activity of Leucine: % Activity” value does the source give for `N[C@@H](CC(F)(F)F)C(=O)O` [Compound I-4, (S)-2-amino-4,4,4-trifluorobutanoic Acid] here?
Its value is “C (a % activity relative to leucine of between -40 and 40%)”.

`N[C@H](CC(F)(F)F)C(=O)O` [Compound I-5, (R)-2-amino-4,4,4-trifluorobutanoic Acid] was tested. Which “Activity of Leucine: % Activity” value did it give?
Its value is “B (a % activity relative to leucine of ≤−40%)”.

`N[C@@H](CCC(F)(F)F)C(=O)O` [Compound I-6, (S)-2-amino-5,5,5-trifluoropentanoic Acid] was tested. Which “Activity of Leucine: % Activity” value did it give?
Its value is “C (a % activity relative to leucine of between -40 and 40%)”.

Which “Activity of Leucine: % Activity” value does the source give for `N[C@H](CCC(F)(F)F)C(=O)O` [Compound I-7, (R)-2-amino-5,5,5-trifluoropentanoic Acid] here?
Its value is “B (a % activity relative to leucine of ≤−40%)”.

With `N[C@@H](CCCC(F)(F)F)C(=O)O` [Compound I-8, (S)-2-amino-6,6,6-trifluorohexanoic Acid] as the compound, how does the “Activity of Leucine: % Activity” value read?
The value was “B (a % activity relative to leucine of ≤−40%)”.

For `N[C@H](CCCC(F)(F)F)C(=O)O` [Compound I-9, (R)-2-amino-6,6,6-trifluorohexanoic Acid], which “Activity of Leucine: % Activity” value is on record?
The value was “C (a % activity relative to leucine of between -40 and 40%)”.

How did the “Activity of Leucine: % Activity” value turn out when `CC(C)C[C@@H](N)B1OC(C)(C)C(C)(C)O1` [Compound I-10] was run?
Its value is “C (a % activity relative to leucine of between -40 and 40%)”.

For `CC(C)C[C@H](NCc1ccccc1)C(=O)O` [Compound I-11, (S)-2-(benzylamino)-4-methylpentanoic Acid], which “Activity of Leucine: % Activity” value is on record?
Its value is “C (a % activity relative to leucine of between -40 and 40%)”.

How did the “Activity of Leucine: % Activity” value turn out when `CC(C)C[C@H](NC(=O)Cc1ccccc1)C(=O)O` [Compound I-12, (S)-4-methyl-2-(2-phenylacetamido)pentanoic Acid] was run?
Its value is “C (a % activity relative to leucine of between -40 and 40%)”.

Which “Activity of Leucine: % Activity” value does the source give for `CC(C)C[C@H](NC(C)C)C(=O)O` [Compound I-13, (S)-2-(isopropylamino)-4-methylpentanoic Acid] here?
The value was “C (a % activity relative to leucine of between -40 and 40%)”.

With `CC(C)CN[C@@H](CC(C)C)C(=O)O` [Compound I-14, (S)-2-(isobutylamino)-4-methylpentanoic Acid] as the compound, how does the “Activity of Leucine: % Activity” value read?
The value was “B (a % activity relative to leucine of ≤−40%)”.

For `CC(C)C[C@H](NC(=O)c1ccccc1)C(=O)O` [Compound I-15, (S)-2-benzamido-4-methylpentanoic Acid], which “Activity of Leucine: % Activity” value is on record?
Its value is “C (a % activity relative to leucine of between -40 and 40%)”.

With `CC(C)C[C@H](NC(=O)C(C)C)C(=O)O` [Compound I-16, (S)-2-isobutyramido-4-methylpentanoic Acid] as the compound, how does the “Activity of Leucine: % Activity” value read?
Its value is “C (a % activity relative to leucine of between -40 and 40%)”.

For `CC(C)C[C@H](NS(=O)(=O)C1CCCCC1)C(=O)O` [Compound I-17, (S)-2-(cyclohexanesulfonamido)-4-methylpentanoic Acid], which “Activity of Leucine: % Activity” value is on record?
Its value is “C (a % activity relative to leucine of between -40 and 40%)”.

How did the “Activity of Leucine: % Activity” value turn out when `CC(C)C[C@H](NS(=O)(=O)Cc1ccccc1)C(=O)O` [Compound I-18, (S)-4-methyl-2-(phenylmethylsulfonamido)pentanoic Acid] was run?
Its value is “C (a % activity relative to leucine of between -40 and 40%)”.

With `CC(C)C[C@H](NS(C)(=O)=O)C(=O)O` [Compound I-19, (S)-4-methyl-2-(methylsulfonamido)pentanoic Acid] as the compound, how does the “Activity of Leucine: % Activity” value read?
The value was “C (a % activity relative to leucine of between -40 and 40%)”.

With `CC(C)C[C@H](N)C(=O)Nc1ccccc1` [Compound I-20, (S)-2-amino-4-methyl-N-phenylpentanamide] as the compound, how does the “Activity of Leucine: % Activity” value read?
Its value is “C (a % activity relative to leucine of between -40 and 40%)”.

For `CNC(=O)[C@@H](N)CC(C)C` [Compound I-21, (S)-2-amino-N,4-dimethylpentanamide], which “Activity of Leucine: % Activity” value is on record?
Its value is “C (a % activity relative to leucine of between -40 and 40%)”.

`CC(C)C[C@H](NC(=O)C1CCCCC1)C(=O)O` [Compound I-22, (S)-2-(Cyclohexanecarboxamido)-4-methylpentanoic Acid] was tested. Which “Activity of Leucine: % Activity” value did it give?
Its value is “C (a % activity relative to leucine of between -40 and 40%)”.

For `CN[C@@H](CC(C)C)C(=O)O.Cl` [Compound I-24], which “Activity of Leucine: % Activity” value is on record?
The value was “A (a % activity relative to leucine of ≥40%)”.

How did the “Activity of Leucine: % Activity” value turn out when `CC(C)C[C@H](NS(=O)(=O)c1ccccc1)C(=O)O` [Compound I-25, (S)-4-methyl-2-(phenylsulfonamido)pentanoic Acid] was run?
The value was “C (a % activity relative to leucine of between -40 and 40%)”.

`CC(C)C[C@H](Nc1ccccc1)C(=O)O` [Compound I-26, (S)-4-methyl-2-(phenylamino)pentanoic Acid] was tested. Which “Activity of Leucine: % Activity” value did it give?
The value was “C (a % activity relative to leucine of between -40 and 40%)”.

Which “Activity of Leucine: % Activity” value does the source give for `CC(C)[C@H](O)[C@H](N)C(=O)O` [Compound I-27] here?
The value was “A (a % activity relative to leucine of ≥40%)”.

How did the “Activity of Leucine: % Activity” value turn out when `CC(C)[C@H](N)C(=O)O` [Compound I-28] was run?
The value was “C (a % activity relative to leucine of between -40 and 40%)”.

How did the “Activity of Leucine: % Activity” value turn out when `CC[C@@H](C)[C@H](N)C(=O)O` [Compound I-29] was run?
The value was “A (a % activity relative to leucine of ≥40%)”.

For `CSCC[C@H](N)C(=O)O` [Compound I-30], which “Activity of Leucine: % Activity” value is on record?
Its value is “A (a % activity relative to leucine of ≥40%)”.
